Laboratory results from PubChem BioAssay (NCI).
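The compound was tested at five concentrations on cells cultured in 96-well plates, with a 48-hour exposure period. TGI marks complete inhibition of growth.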

Experiments:
Assay in all cases: DTP human tumour cell line panel, 48 h
[1] = test system: SN12C renal
[2] = test system: SF-295 CNS
[3] = test system: RPMI-8226 leukemia
[4] = test system: HT29 colon
[5] = test system: NCI-H23 lung
[6] = test system: NCI-H522 lung
[7] = test system: ACHN renal
[8] = test system: MDA-N
[9] = test system: HCT-116 colon
[10] = test system: CAKI-1 renal
[11] = test system: IGROV1 ovarian
[12] = test system: HCT-15 colon
[13] = test system: HOP-92 NSCLC
[14] = test system: NCI-H226 lung
[15] = test system: SK-MEL-2 melanoma
[16] = test system: LOX IMVI melanoma
[17] = test system: SNB-19 CNS
[18] = test system: HL-60(TB) leukemia
[19] = test system: SR leukemia
[20] = test system: MCF7 breast

| Structure (SMILES) | TGI [1] | TGI [2] | TGI [3] | TGI [4] | TGI [5] | TGI [6] | TGI [7] | TGI [8] | TGI [9] | TGI [10] | TGI [11] | TGI [12] | TGI [13] | TGI [14] | TGI [15] | TGI [16] | TGI [17] | TGI [18] | TGI [19] | TGI [20] |
| --- | --- | --- | --- | --- | --- | --- | --- | --- | --- | --- | --- | --- | --- | --- | --- | --- | --- | --- | --- | --- |
| O=C(Cn1c2ccc(Br)cc2c2nc3ccccc3nc21)Nc1ccccc1 | > 100 µM | > 100 µM | > 100 µM | > 100 µM | 93.6 µM | 40.5 µM | > 100 µM | > 100 µM | 27.6 µM | 86.9 µM | 56.2 µM | 70.5 µM | 32.4 µM | 82.7 µM | > 100 µM | 29.2 µM | > 100 µM |  |  |  |
| CC(Cn1c2c(c3cc(O)ccc31)CCc1ccc(O)cc1-2)N(C)C (centres undefined) | 68.9 µM | 45.4 µM | > 100 µM | 35.8 µM | 41.2 µM |  | 30.1 µM | 48.1 µM | > 100 µM | 52.8 µM | 29.1 µM | 30.2 µM |  | 37.3 µM | 31.1 µM | 81 µM | 37.4 µM | > 100 µM | > 100 µM | 36.3 µM |
| O=C(Nc1ccccc1)OCCN=C1c2ccccc2CCc2ccccc21 | 40.2 µM | 34.1 µM | 36.1 µM | 37 µM | > 100 µM |  | 70.1 µM | 37.2 µM | 30 µM | 88 µM | 58.2 µM | 48.2 µM |  | 55 µM | 30.3 µM | 49.4 µM | 43.7 µM | 42.2 µM | 38.9 µM | 57.8 µM |
| CCCCOC/N=C(/N)NC#N | > 100 µM | > 100 µM | > 100 µM | > 100 µM | > 100 µM | > 100 µM | > 100 µM |  | > 100 µM | > 100 µM | > 100 µM | 43.8 µM | > 100 µM | > 100 µM | > 100 µM | 90.1 µM | > 100 µM | > 100 µM | 63.1 µM |  |
| CCOC(=O)c1nc2ccc(C(F)(F)F)cc2nc1Nc1ccc(OC)cc1 |  | 77.6 µM | > 100 µM | > 100 µM | > 100 µM | > 100 µM | > 100 µM |  | > 100 µM |  | > 100 µM | > 100 µM | 49.2 µM | > 100 µM | > 100 µM | > 100 µM | > 100 µM | > 100 µM | > 100 µM | > 100 µM |
| Cc1cc(NS(=O)(=O)c2ccc(N=[N+]([O-])c3ccc(S(=O)(=O)Nc4cc(C)on4)cc3)cc2)no1 | > 100 µM | > 100 µM | > 100 µM | > 100 µM | > 100 µM | > 100 µM | > 100 µM |  | > 100 µM | > 100 µM | > 100 µM | > 100 µM | > 100 µM | > 100 µM | > 100 µM | > 100 µM | > 100 µM | > 100 µM | > 100 µM | > 100 µM |
| CCOC(=O)c1c[nH]c(C(=O)C=[N+]=[N-])c1C1CCN(CC)C1=S (centres undefined) |  | > 100 µM | > 100 µM | > 100 µM | > 100 µM | > 100 µM | > 100 µM | > 100 µM | > 100 µM | > 100 µM | > 100 µM | > 100 µM | > 100 µM |  | > 100 µM |  | > 100 µM |  |  | > 100 µM |
| C=C1C(=O)O[C@H]2C1C[C@H](O)[C@@]1(C)OC1CC[C@@]1(C)O[C@H]21 (some centres undefined) | 32.4 µM | > 100 µM | 30.2 µM | > 100 µM | 39.2 µM | 11.9 µM | 34.2 µM |  | 30.2 µM | 33.5 µM | 31 µM | 40.3 µM | 36.5 µM |  | 55.3 µM |  |  |  | 40.5 µM | 29.5 µM |
| CC1=CCC(C(C)(C)NC(=O)c2ccccc2)C/C1=N/O (centres undefined) | > 100 µM | > 100 µM |  | > 100 µM | > 100 µM | > 100 µM |  | > 100 µM | > 100 µM |  | > 100 µM | > 100 µM | > 100 µM |  |  | > 100 µM | > 100 µM | > 100 µM |  | > 100 µM |
| Cc1sc2nc3n(c(=O)c2c1C)N=CN(c1ccc(Cl)cc1)C3 | > 100 µM | > 100 µM | > 100 µM | > 100 µM | > 100 µM | > 100 µM | > 100 µM | > 100 µM | > 100 µM | > 100 µM | > 100 µM | > 100 µM | > 100 µM | > 100 µM | > 100 µM | > 100 µM | > 100 µM |  | > 100 µM |  |
| COc1ccc(COCC[C@H](C)OC2OC(CO)C(O)C(O)C2O)cc1 (some centres undefined) | > 100 µM | > 100 µM | > 100 µM | > 100 µM | > 100 µM | > 100 µM | > 100 µM |  | > 100 µM | > 100 µM | > 100 µM | > 100 µM | > 100 µM | > 100 µM | > 100 µM | > 100 µM | > 100 µM | > 100 µM | > 100 µM | > 100 µM |
| C[C@@H]1CC[C@H]2[C@H](C)C(OC3O[C@@H]4O[C@@]5(C)CC[C@H]6[C@H](C)CC[C@@H]([C@@H]3C)[C@@]46O5)O[C@@H]3O[C@@]4(C)CC[C@@H]1[C@]32O4 (some centres undefined) | > 100 µM | > 100 µM | > 100 µM | > 100 µM | > 100 µM | > 100 µM | > 100 µM | > 100 µM | > 100 µM | > 100 µM |  | > 100 µM |  | > 100 µM | > 100 µM | > 100 µM | > 100 µM | > 100 µM | > 100 µM | > 100 µM |
| COC(=O)C(=O)C(C(=O)C(=O)Nc1ccc(C)cc1C)c1nc2ccc(Cl)cc2[nH]c1=O (centres undefined) | > 100 µM | > 100 µM |  | > 100 µM | > 100 µM | > 100 µM | > 100 µM | > 100 µM | > 100 µM | > 100 µM | > 100 µM | > 100 µM | > 100 µM | > 100 µM | > 100 µM | > 100 µM | > 100 µM | > 100 µM |  | > 100 µM |
